Patent US20090312411A1, “PREVENTING OR REDUCING RISK OF MISCARRIAGES” (New York Society for the Raptured and Crippled Maintaining …, priority 2008, published 2009)

Columns and labels:
monocytes = assay: sFlt-1 release by monocytes in vitro (ELISA); assay type: cell-based, mouse; details: 10 nM C5a for 4 h; pravastatin 5 μg/ml for 3 hours prior to C5a
Description: Protocol. Mice with a selective deletion of the TF gene in myeloid cells (TF^floxed/floxed/LysM-Cre mice) (Redecha et al., supra), were used for isolation of monocytes to study sVEGFR-1 production in vitro. Blockade of TF was carried out as in Example 17 by i.p. injections of anti-mTF antibody 1H1.
Protocol. Splenocytes were prepared from non pregnant CBA/J female mice and incubated for 4 h in culture medium supplemented with 10% inactivated fetal bovine serum (FBS). Non adherent cells were removed and adherent cells (>95% peroxidase-positive) were incubated in culture medium with the addition of 10 nM mouse recombinant C5a. A group of adherent monocytes was treated for 3 hours with pravastatin (5 μg/ml) prior to incubation with C5a. After 4 h of incubation with C5a, culture supernatants were collected and analyzed for sVEGFR-1 by ELISA (R&D Systems).

TF = TF expression on peripheral blood monocytes, 2-color FACS; assay type: in vivo, mouse; details: CBA/J×DBA/2 mice, FIG. 17G
Description: Determining TF Expression. TF expression on peripheral blood monocytes was analyzed by 2-color fluorescence-activated cell sorting (FACS). Heparinized whole blood obtained at day 7 from DBA/2 or BALB/c mated CBA/J females was stained with fluorescein isothiocyanate (FITC)-labeled anti-mouse F4/80 for FL1 (BD Biosciences Pharmingen) to identify monocytes and biotinylated rat anti-mTF antibody 1H1 and streptavidin-PerCP (BD Biosciences Pharmingen) as the FL3 fluorochrome. Red cells were lysed with ACK buffer (Redecha et al., supra). Preparations were then incubated with SA-PerCP and analyzed by FACS using a FACscan (BD Biosciences Pharmingen).

sFlt-1 = assay: Plasma sFlt-1 (sVEGFR-1) ELISA in CBA/J×DBA/2 mice; assay type: in vivo, mouse; details: day 7 of pregnancy
Description: Protocol. To determine the effect of pravastatin treatment on pregnancy loss and oxidative stress, group of mice was treated with pravastatin (Sigma Chemicals, St Louis, Mo.; 5 μg/mouse, IP) from day 4 to 15 of pregnancy. Pravastatin was directly dissolved in sterile PBS. Blood samples were obtained from pregnant females from days 1 to 15 of pregnancy from the submandibular vein. Nitric oxide (NO) was measured by a […] method (R&D Systems). Plasma sVEGFR-1 was measured with a commercial ELISA kit (R&D Systems).

CBA/J×DBA/2 mice [1] = assay: Litter size at birth in CBA/J×DBA/2 matings; assay type: in vivo, mouse; details: CBA/J×DBA/2 mice followed until delivery; FIG. 15C, 17C
Description: Measuring Thrombin-Anti-Thrombin Complexes. Thrombin anti thrombin III complex (TAT) was measured using a commercial ELISA kit (Enzygnost TAT; Dade Behring). Some mice from each experimental group were studied until delivery and the litter sizes were recorded at birth.

CBA/J×DBA/2 mice [2] = assay: Fetal weight / IUGR in CBA/J×DBA/2 matings; assay type: in vivo, mouse; details: day 15 of pregnancy, FIG. 10, 15B, 17B
Description: Protocol. 8-10-wk-old virgin female CBA/J mice were mated with 8-14-wk-old CBA/J, BALB/c, or DBA/2 males. Females were inspected daily for vaginal plugs, and presence of a vaginal plug was designated as day 0 of pregnancy. Pregnant mice were treated with pravastatin (0.2 μg/g bw=5 μg/mouse, i.p 18 hours prior to aPL or NHIgG injections on days 8 and 12). Pravastatin (Sigma Chemical, St Louis, Mo.) was dissolved in EtOH at a concentration of 10 mg/mL and diluted with NaCl 0.9% in a ratio of 1:1000 to yield a final concentration of 10 μg pravastatin per 1 mL carrier. The NaCl 0.9%-based carrier solution for the placebo group was prepared accordingly to include EtOH only (i.e., without pravastatin) at a concentration of 1:1000. Pregnant females were euthanized on day 15 and weights of fetuses were determined.
(§1) Animals. Inbred CBA/J (H-2k), DBA/2 (H-2d) and BALB/c (H-2d) mice from The Jackson Laboratory were used. 8-10-wk-old virgin female CBA/J mice were mated with 8-14-wk-old BALB/c, or DBA/2 males. Pregnant females were sacrificed at day 7 and at day 15. The frequency of fetal resorption was calculated on day 15 as previously described (Girardi et al., 2006, J Exp Med 203:2165-2175). Fetal weights were also determined. […]
(§2) Protocol. […] Nitric oxide (NO) was measured by a calorimetric method (R&D Systems). Plasma sVEGFR-1 was measured with a commercial ELISA kit (R&D Systems).

CBA/J×DBA/2 mice [3] = assay: Fetal resorption frequency in CBA/J×DBA/2 matings (non aPL-dependent recurrent miscarriage); assay type: in vivo, mouse; details: day 15 of pregnancy, FIG. 7, 15A, 17A
Text: Protocol. DBA/2-mated female CBA/J mice (CBA/J×DBA/2) are a well-studied model of immunologically mediated pregnancy loss that shares features with human recurrent miscarriage (Clark, D A et al., 1998, J. Immunol. 160:545-549; Blois, M. et al., 2005, J. Immunol. 174:1820-1829). Embryonic lethality in DBA/2-mated female CBA/J mice is believed to represent rejection of the semiallogeneic placenta by maternal-derived activated effectors. 8-10-wk-old virgin female CBA/J mice were mated with 8-14-wk-old CBA/J, BALB/c, or DBA/2 males. Females were inspected daily for vaginal plugs, and presence of a vaginal plug was designated as day 0 of pregnancy. A group of DBA/2- and BALB/c mated CBA/J females were treated with pravastatin (0.2 μg/g bw=5 μg/mouse, i.p) on days 5, 6 and 7 of pregnancy. […] Pregnant females were euthanized on day 15 and fetal resorption frequency was calculated.
as §1, with “Pregnant females were sacrificed at day 7 and at day 15.” left out
as §2

[4] = system: Isoprostane 8-iso-prostaglandin F2a (STAT-8); assay: Placental STAT-8 (8-isoprostane) EIA, oxidative stress marker; assay type: in vivo, mouse; details: CBA/J×DBA/2 mice, day 15 placentas, FIG. 16A
Description: STAT-8 Measurements. Isoprostane 8-iso-prostaglandin F2a (STAT-8) was measured as a marker for oxidative stress. Placental tissue was harvested at day 15 of pregnancy and homogenized in 9 volumes of 0.1 M Tris pH 7.4 containing 1 mM EDTA and 10 μM indomethacin and stored at −80° C. in the presence of 0.005% BHT before assayed for free 8-isoprostane using a STAT-8-Isoprostane EIA kit (Cayman Chemical Company, Ann Arbor, Mich.).

Compound | sFlt-1 released by monocytes (monocytes) | % TF positive monocytes (TF) | plasma sFlt-1 levels (sFlt-1) | litter size at birth (CBA/J×DBA/2 mice [1]) | IUGR / growth restriction (fetal weight) (CBA/J×DBA/2 mice [2]) | fetal resorption / fetal loss (CBA/J×DBA/2 mice [3]) | placental STAT-8 increase [4]
CC[C@H](C)C(=O)O[C@H]1C[C@H](O)C=C2C=C[C@H](C)[C@H](CC[C@@H](O)C[C@@H](O)CC(=O)O)[C@H]21 [pravastatin] | 387 ± 78 pg/mL | 10±4% | 18650 ± 5680 pg/mL |  |  |  | 
hirudin |  |  |  | increasing the litter size | prevented fetal resorptions and growth restriction | prevented fetal resorptions | prevented STAT-8 increase
